# pIC50: −log10 of the molar value.
# Target: T1, PI3K α (Homo sapiens, UniProt P42336)
# T1 construct: purchased Millipore
# Experiment: PI3-Kinase Promega ADP-Glo Max assay
# Assay type: biochemical
# Details: 20 nM kinase, 3 mM ATP, 500 uM diC8-PtdInsP
# Description: (§1) Promega ADP-Glo Max assay kit (Cat. No. V7002) was utilized to determine IC50 values for α, β, δ and γ isoforms of human Class I PI3 kinases (Millipore). Samples of kinase (20 nM α or δ, 40 nM β or γ isoform) were incubated with compound for 15 minutes at room temperature in reaction buffer (15 mM HEPES pH 7.4, 20 mM NaCl, 1 mM EGTA, 0.02% Tween 20, 10 mM MgCl2, 0.2 mg/mL bovine-γ-globulins) followed by addition of ATP/diC8-PtdInsP mixture to give final concentrations of 3 mM ATP and 500 uM diC8-PtdInsP. Reactions were incubated at room temperature for 2 hours followed by addition of 25 uL of stop solution. After a 40-minute incubation at room temperature, 50 uL of Promega detection mix was added followed by incubation for 1 hour at room temperature. Plates were then read on Envision plate reader in luminescence mode. Data was converted to % inhibition using the following equation below:
# (§2) [formula] where S is the sample luminescence, Pos is a positive control without added PI3K, Neg is the negative control without added compound. Data was then plotted as % inhibition vs compound concentration. Data fit to 4 parameter logistic equation to determine IC50 values: […]
# (§3) Certain compounds provided herein were tested in PI3-Kinase Promega Assay using procedures as described above to determine IC50 values for α, β, δ and/or γ isoforms.
# T1 sequence (P42336 whole entry): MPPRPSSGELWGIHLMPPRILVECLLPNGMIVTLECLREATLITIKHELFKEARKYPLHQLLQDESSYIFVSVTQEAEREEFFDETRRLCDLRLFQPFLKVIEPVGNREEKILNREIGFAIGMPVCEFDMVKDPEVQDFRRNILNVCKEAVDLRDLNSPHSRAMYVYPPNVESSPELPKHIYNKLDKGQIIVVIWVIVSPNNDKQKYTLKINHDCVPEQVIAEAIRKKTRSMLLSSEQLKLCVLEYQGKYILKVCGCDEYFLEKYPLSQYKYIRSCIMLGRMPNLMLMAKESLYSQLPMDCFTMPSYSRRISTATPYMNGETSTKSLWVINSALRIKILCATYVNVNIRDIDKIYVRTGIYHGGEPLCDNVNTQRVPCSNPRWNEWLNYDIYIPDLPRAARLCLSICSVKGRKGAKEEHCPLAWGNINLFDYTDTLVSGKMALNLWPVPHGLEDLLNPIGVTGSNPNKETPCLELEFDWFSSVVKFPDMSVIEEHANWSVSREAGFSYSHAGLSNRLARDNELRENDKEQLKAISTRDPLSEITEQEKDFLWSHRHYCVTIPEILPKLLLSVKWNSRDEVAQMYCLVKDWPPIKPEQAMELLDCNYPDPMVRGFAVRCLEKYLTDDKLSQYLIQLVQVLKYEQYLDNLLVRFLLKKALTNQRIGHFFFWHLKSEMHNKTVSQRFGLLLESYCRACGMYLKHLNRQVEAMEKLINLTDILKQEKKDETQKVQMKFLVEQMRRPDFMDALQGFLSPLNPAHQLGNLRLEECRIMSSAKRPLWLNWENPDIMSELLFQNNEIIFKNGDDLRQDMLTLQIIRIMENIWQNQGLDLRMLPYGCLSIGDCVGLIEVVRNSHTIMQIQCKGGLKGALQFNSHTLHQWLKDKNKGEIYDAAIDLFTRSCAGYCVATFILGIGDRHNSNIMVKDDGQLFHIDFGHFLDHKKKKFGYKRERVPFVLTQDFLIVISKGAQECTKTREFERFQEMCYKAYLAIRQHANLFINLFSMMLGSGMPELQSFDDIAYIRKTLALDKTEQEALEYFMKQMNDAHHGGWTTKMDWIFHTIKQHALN
# T1 sequence (P27986 whole entry partner): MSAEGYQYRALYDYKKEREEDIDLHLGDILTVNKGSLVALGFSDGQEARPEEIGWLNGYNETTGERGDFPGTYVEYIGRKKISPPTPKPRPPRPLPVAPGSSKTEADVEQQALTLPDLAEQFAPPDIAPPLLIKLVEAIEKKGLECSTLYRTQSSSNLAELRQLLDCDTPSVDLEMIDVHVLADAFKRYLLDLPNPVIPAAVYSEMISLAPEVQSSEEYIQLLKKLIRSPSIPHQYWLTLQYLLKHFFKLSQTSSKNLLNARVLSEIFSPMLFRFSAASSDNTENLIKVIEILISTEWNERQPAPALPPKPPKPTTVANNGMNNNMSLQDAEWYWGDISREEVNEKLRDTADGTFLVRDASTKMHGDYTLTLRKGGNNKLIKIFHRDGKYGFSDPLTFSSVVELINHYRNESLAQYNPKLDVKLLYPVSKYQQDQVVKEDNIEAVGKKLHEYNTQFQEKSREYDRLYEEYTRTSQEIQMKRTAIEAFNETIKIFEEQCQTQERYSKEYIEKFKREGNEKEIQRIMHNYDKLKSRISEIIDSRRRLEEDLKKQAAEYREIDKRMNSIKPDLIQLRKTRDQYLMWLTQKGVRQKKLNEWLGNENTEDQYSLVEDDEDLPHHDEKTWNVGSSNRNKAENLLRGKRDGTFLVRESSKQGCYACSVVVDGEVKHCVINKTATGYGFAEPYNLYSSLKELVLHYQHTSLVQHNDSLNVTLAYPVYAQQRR
row,Compound,pIC50
1,CC(C)NS(=O)(=O)c1cccc(-c2cnc(N)c(C(=O)N[C@@H](C)c3cc4cccc(Cl)c4c(=O)n3-c3ccccc3)n2)c1 [Compound 97],5.00 to 6.00
2,C[C@H](NC(=O)c1cnc2cccnn12)c1cc2cccc(Cl)c2c(=O)n1-c1ccc(F)cc1 [Compound 20],5.00 to 6.00
3,CC(C)Oc1ccc(-c2cnc(N)c(C(=O)N[C@@H](C)c3cc4cccc(Cl)c4c(=O)n3-c3ccccc3)n2)cc1 [Compound 106],< 5.00

# Continued, values first:
row,pIC50,Compound
1,< 5.00,C[C@H](NC(=O)c1c(N)nn2cccnc12)c1cc2cccc(N(C)C)c2c(=O)n1-c1ccccc1 [Compound 180]
2,5.00 to 6.00,CC(=O)Nc1ccc(-c2cccc3cc([C@H](C)NC(=O)c4c(N)nn5cccnc45)n(-c4ccccc4)c(=O)c23)cc1 [Compound 203]
3,5.00 to 6.00,C[C@H](NC(=O)c1c(N)ncc2cccnc12)c1cc2cccc(Cl)c2c(=O)n1-c1ccccc1 [Compound 137]
4,< 5.00,C[C@H](NC(=O)c1c(N)nn2cccnc12)c1cc2cccc(O)c2c(=O)n1-c1ccccc1 [Compound 132]

# Target: T2, PI3K β (Homo sapiens, UniProt P42338)
# T2 construct: purchased Millipore
# T2 sequence (P42338 whole entry): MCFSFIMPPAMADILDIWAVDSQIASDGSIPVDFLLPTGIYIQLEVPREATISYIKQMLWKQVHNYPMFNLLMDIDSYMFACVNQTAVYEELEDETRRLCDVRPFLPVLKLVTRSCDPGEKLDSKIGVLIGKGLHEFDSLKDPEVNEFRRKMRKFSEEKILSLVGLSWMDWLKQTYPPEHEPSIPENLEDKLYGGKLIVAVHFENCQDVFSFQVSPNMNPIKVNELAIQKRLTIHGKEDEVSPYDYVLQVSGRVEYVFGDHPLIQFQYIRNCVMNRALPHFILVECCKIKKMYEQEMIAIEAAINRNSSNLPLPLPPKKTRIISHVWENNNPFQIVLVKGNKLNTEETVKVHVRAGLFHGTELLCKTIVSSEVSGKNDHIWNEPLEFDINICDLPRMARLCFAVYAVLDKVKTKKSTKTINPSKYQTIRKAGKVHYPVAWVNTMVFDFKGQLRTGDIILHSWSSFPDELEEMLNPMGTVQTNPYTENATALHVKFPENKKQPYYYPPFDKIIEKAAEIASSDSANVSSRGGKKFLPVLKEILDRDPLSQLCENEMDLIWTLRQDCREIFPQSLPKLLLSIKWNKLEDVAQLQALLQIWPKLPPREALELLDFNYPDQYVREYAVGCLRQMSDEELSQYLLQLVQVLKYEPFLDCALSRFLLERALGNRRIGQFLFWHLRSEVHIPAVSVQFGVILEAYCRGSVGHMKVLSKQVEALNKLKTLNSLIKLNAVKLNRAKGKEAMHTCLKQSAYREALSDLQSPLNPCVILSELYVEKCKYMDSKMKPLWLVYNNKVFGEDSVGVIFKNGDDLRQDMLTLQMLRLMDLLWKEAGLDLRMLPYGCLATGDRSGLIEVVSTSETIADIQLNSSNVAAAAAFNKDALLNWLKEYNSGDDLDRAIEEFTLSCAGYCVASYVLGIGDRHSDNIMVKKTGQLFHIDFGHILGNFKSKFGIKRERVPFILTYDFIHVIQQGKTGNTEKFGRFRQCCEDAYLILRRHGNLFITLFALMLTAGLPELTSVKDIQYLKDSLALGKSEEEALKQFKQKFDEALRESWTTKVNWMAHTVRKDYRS
# T2 sequence (P27986 whole entry partner): as the sequence (P27986 whole entry partner) above
# Experiment: PI3-Kinase Promega ADP-Glo Max assay
# Assay type: biochemical
# Details: 40 nM kinase, 3 mM ATP, 500 uM diC8-PtdInsP
# Description: as §1, §2, §3
row,Compound,pIC50
1,CC(C)NS(=O)(=O)c1cccc(-c2cnc(N)c(C(=O)N[C@@H](C)c3cc4cccc(Cl)c4c(=O)n3-c3ccccc3)n2)c1 [Compound 97],6.00 to 7.00
2,C[C@H](NC(=O)c1cnc2cccnn12)c1cc2cccc(Cl)c2c(=O)n1-c1ccc(F)cc1 [Compound 20],5.00 to 6.00
3,CC(C)Oc1ccc(-c2cnc(N)c(C(=O)N[C@@H](C)c3cc4cccc(Cl)c4c(=O)n3-c3ccccc3)n2)cc1 [Compound 106],< 5.00

# Second part, the molecule after the results:
row,pIC50,Compound
1,< 5.00,C[C@H](NC(=O)c1c(N)nn2cccnc12)c1cc2cccc(N(C)C)c2c(=O)n1-c1ccccc1 [Compound 180]
2,< 5.00,CC(=O)Nc1ccc(-c2cccc3cc([C@H](C)NC(=O)c4c(N)nn5cccnc45)n(-c4ccccc4)c(=O)c23)cc1 [Compound 203]
3,6.00 to 7.00,C[C@H](NC(=O)c1c(N)ncc2cccnc12)c1cc2cccc(Cl)c2c(=O)n1-c1ccccc1 [Compound 137]
4,5.00 to 6.00,C[C@H](NC(=O)c1c(N)nn2cccnc12)c1cc2cccc(O)c2c(=O)n1-c1ccccc1 [Compound 132]

# Target: T3, PI3K δ (Homo sapiens, UniProt O00329)
# T3 construct: purchased Millipore
# T3 sequence (O00329 whole entry): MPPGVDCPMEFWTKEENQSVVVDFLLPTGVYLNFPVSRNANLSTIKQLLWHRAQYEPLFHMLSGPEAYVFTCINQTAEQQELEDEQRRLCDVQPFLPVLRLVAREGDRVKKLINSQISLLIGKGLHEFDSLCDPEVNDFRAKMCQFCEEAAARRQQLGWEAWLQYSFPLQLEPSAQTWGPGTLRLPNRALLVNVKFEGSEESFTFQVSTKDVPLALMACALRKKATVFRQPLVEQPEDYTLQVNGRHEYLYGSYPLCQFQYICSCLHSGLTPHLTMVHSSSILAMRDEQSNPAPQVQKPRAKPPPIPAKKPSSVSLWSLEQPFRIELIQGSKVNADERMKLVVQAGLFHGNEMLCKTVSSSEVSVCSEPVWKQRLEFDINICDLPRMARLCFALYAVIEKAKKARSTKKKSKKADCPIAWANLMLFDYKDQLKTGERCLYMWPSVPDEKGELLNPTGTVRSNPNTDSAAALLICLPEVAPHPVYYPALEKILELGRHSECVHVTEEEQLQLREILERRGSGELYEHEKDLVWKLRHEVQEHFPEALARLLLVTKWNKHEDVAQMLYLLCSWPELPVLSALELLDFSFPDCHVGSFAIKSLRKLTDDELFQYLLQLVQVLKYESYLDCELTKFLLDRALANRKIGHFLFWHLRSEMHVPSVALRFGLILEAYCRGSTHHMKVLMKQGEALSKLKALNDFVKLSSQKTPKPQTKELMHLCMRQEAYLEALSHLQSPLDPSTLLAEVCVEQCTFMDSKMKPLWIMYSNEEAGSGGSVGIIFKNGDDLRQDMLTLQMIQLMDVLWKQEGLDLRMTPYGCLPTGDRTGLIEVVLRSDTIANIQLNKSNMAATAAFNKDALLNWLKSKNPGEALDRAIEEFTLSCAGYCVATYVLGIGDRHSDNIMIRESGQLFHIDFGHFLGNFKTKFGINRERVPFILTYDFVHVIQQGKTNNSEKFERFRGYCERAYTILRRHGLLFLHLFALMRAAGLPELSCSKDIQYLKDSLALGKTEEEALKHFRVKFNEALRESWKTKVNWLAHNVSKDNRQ
# T3 sequence (P27986 whole entry partner): as the sequence (P27986 whole entry partner) above
# Experiment: PI3-Kinase Promega ADP-Glo Max assay
# Assay type: biochemical
# Details: 20 nM kinase, 3 mM ATP, 500 uM diC8-PtdInsP
# Description: as §1, §2, §3
row,Compound,pIC50
1,CC(C)NS(=O)(=O)c1cccc(-c2cnc(N)c(C(=O)N[C@@H](C)c3cc4cccc(Cl)c4c(=O)n3-c3ccccc3)n2)c1 [Compound 97],5.00 to 6.00
2,C[C@H](NC(=O)c1cnc2cccnn12)c1cc2cccc(Cl)c2c(=O)n1-c1ccc(F)cc1 [Compound 20],5.00 to 6.00
3,CC(C)Oc1ccc(-c2cnc(N)c(C(=O)N[C@@H](C)c3cc4cccc(Cl)c4c(=O)n3-c3ccccc3)n2)cc1 [Compound 106],< 5.00

# Continued, values first:
row,pIC50,Compound
1,< 5.00,C[C@H](NC(=O)c1c(N)nn2cccnc12)c1cc2cccc(N(C)C)c2c(=O)n1-c1ccccc1 [Compound 180]
2,5.00 to 6.00,CC(=O)Nc1ccc(-c2cccc3cc([C@H](C)NC(=O)c4c(N)nn5cccnc45)n(-c4ccccc4)c(=O)c23)cc1 [Compound 203]
3,6.00 to 7.00,C[C@H](NC(=O)c1c(N)ncc2cccnc12)c1cc2cccc(Cl)c2c(=O)n1-c1ccccc1 [Compound 137]
4,< 5.00,C[C@H](NC(=O)c1c(N)nn2cccnc12)c1cc2cccc(O)c2c(=O)n1-c1ccccc1 [Compound 132]

# Target: T4, PI3K γ (Homo sapiens, UniProt P48736)
# T4 construct: purchased Millipore
# Experiment: PI3-Kinase Promega ADP-Glo Max assay
# Assay type: biochemical
# Details: 40 nM kinase, 3 mM ATP, 500 uM diC8-PtdInsP
# Description: Promega ADP-Glo Max assay kit (Cat. No. V7002) was utilized to determine IC50 values for α, β, δ and γ isoforms of human Class I PI3 kinases (Millipore). […] Reactions were incubated at room temperature for 2 hours followed by addition of 25 uL of stop solution. After a 40-minute incubation at room temperature, 50 uL of Promega detection mix was added followed by incubation for 1 hour at room temperature. Plates were then read on Envision plate reader in luminescence mode. Data was converted to % inhibition using the following equation below:
# [formula] where S is the sample luminescence, Pos is a positive control without added PI3K, Neg is the negative control without added compound. Data was then plotted as % inhibition vs compound concentration.
# as §3
row,Compound,pIC50
1,CC(C)NS(=O)(=O)c1cccc(-c2cnc(N)c(C(=O)N[C@@H](C)c3cc4cccc(Cl)c4c(=O)n3-c3ccccc3)n2)c1 [Compound 97],6.00 to 7.00
2,C[C@H](NC(=O)c1cnc2cccnn12)c1cc2cccc(Cl)c2c(=O)n1-c1ccc(F)cc1 [Compound 20],5.00 to 6.00
3,CC(C)Oc1ccc(-c2cnc(N)c(C(=O)N[C@@H](C)c3cc4cccc(Cl)c4c(=O)n3-c3ccccc3)n2)cc1 [Compound 106],5.00 to 6.00

# Second part, the molecule after the results:
row,pIC50,Compound
1,5.00 to 6.00,C[C@H](NC(=O)c1c(N)nn2cccnc12)c1cc2cccc(N(C)C)c2c(=O)n1-c1ccccc1 [Compound 180]
2,6.00 to 7.00,CC(=O)Nc1ccc(-c2cccc3cc([C@H](C)NC(=O)c4c(N)nn5cccnc45)n(-c4ccccc4)c(=O)c23)cc1 [Compound 203]
3,6.00 to 7.00,C[C@H](NC(=O)c1c(N)ncc2cccnc12)c1cc2cccc(Cl)c2c(=O)n1-c1ccccc1 [Compound 137]
4,5.00 to 6.00,C[C@H](NC(=O)c1c(N)nn2cccnc12)c1cc2cccc(O)c2c(=O)n1-c1ccccc1 [Compound 132]

# Target: T5, Raw264.7 p110 γ (Mus musculus, UniProt Q9JHG7)
# T5 construct: reduction of phospho-AKT in stimulated RAW 264.7 cells; endogenous in cells; host or cells: RAW264.7 macrophages
# T5 sequence (Q9JHG7 whole entry): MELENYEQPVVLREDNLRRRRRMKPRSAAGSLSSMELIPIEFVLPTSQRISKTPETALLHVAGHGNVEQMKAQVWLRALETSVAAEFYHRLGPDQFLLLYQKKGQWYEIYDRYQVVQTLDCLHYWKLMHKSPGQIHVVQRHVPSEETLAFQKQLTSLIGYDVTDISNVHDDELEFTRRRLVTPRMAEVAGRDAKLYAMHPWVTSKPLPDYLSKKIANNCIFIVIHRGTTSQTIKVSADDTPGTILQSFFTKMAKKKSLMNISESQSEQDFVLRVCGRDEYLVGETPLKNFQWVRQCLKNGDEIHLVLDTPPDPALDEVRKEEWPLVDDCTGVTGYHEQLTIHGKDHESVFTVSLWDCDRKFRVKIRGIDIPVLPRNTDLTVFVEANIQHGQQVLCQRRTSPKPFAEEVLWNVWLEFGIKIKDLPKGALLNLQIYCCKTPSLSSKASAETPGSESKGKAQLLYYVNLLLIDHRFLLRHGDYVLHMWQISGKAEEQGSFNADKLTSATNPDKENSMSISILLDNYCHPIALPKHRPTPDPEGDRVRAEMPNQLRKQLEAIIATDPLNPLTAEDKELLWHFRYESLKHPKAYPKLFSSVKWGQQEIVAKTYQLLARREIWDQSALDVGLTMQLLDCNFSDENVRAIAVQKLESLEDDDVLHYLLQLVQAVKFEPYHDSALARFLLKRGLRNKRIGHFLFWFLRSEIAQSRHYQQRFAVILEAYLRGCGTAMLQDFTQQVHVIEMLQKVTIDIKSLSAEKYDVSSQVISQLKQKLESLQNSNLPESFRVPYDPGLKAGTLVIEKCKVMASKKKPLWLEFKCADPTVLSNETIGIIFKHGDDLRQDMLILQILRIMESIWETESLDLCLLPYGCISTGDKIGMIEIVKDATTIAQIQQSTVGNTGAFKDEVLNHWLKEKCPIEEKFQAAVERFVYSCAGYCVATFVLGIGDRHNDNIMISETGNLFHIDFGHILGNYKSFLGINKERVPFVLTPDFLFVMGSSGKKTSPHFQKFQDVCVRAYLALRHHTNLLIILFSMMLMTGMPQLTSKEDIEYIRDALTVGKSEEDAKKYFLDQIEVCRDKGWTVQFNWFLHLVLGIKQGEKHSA
# Experiment: Raw264.7 p110 γ cellular assay (phospho-AKT)
# Assay type: cell-based
# Details: serum-starved RAW264.7 cells stimulated with C5a
# Source text: (b) PI3K-γ Selective Assay
# Briefly, serum-starved PAW264.7 cells are stimulated with a known GPCR agonist C5a. […] Cells can be treated with test compounds prior to, simultaneously with, or subsequent to the stimulation by C5a. RAW 264.7 cells respond to the complement component fragment C5a through activation of the C5a receptor, and the C5a receptor activates macrophages and induces cell migration.
row,Compound,pIC50
1,CC(C)NS(=O)(=O)c1cccc(-c2cnc(N)c(C(=O)N[C@@H](C)c3cc4cccc(Cl)c4c(=O)n3-c3ccccc3)n2)c1 [Compound 97],> 7.00
2,C[C@H](NC(=O)c1cnc2cccnn12)c1cc2cccc(Cl)c2c(=O)n1-c1ccc(F)cc1 [Compound 20],6.00 to 7.00
3,CC(C)Oc1ccc(-c2cnc(N)c(C(=O)N[C@@H](C)c3cc4cccc(Cl)c4c(=O)n3-c3ccccc3)n2)cc1 [Compound 106],6.00 to 7.00

# Further lines, results first:
row,pIC50,Compound
1,6.00 to 7.00,C[C@H](NC(=O)c1c(N)nn2cccnc12)c1cc2cccc(N(C)C)c2c(=O)n1-c1ccccc1 [Compound 180]
2,> 7.00,CC(=O)Nc1ccc(-c2cccc3cc([C@H](C)NC(=O)c4c(N)nn5cccnc45)n(-c4ccccc4)c(=O)c23)cc1 [Compound 203]
3,> 7.00,C[C@H](NC(=O)c1c(N)ncc2cccnc12)c1cc2cccc(Cl)c2c(=O)n1-c1ccccc1 [Compound 137]
4,> 7.00,C[C@H](NC(=O)c1c(N)nn2cccnc12)c1cc2cccc(O)c2c(=O)n1-c1ccccc1 [Compound 132]

# Target: RAJI p110 δ (Homo sapiens, UniProt O00329)
# Experiment: RAJI p110 δ cellular assay (phospho-AKT);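 further: potency based on lowered phosphorylated AKT in RAJI cells, as a readout of PI3K-δ dependent B-cell receptor signaling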
# Details: not given
row,Compound,pIC50
1,CC(C)NS(=O)(=O)c1cccc(-c2cnc(N)c(C(=O)N[C@@H](C)c3cc4cccc(Cl)c4c(=O)n3-c3ccccc3)n2)c1 [Compound 97],> 7.00
2,C[C@H](NC(=O)c1cnc2cccnn12)c1cc2cccc(Cl)c2c(=O)n1-c1ccc(F)cc1 [Compound 20],> 7.00
3,CC(C)Oc1ccc(-c2cnc(N)c(C(=O)N[C@@H](C)c3cc4cccc(Cl)c4c(=O)n3-c3ccccc3)n2)cc1 [Compound 106],< 5.00

# Second part, the molecule after the results:
row,pIC50,Compound
1,5.00 to 6.00,C[C@H](NC(=O)c1c(N)nn2cccnc12)c1cc2cccc(N(C)C)c2c(=O)n1-c1ccccc1 [Compound 180]
2,> 7.00,CC(=O)Nc1ccc(-c2cccc3cc([C@H](C)NC(=O)c4c(N)nn5cccnc45)n(-c4ccccc4)c(=O)c23)cc1 [Compound 203]
3,> 7.00,C[C@H](NC(=O)c1c(N)ncc2cccnc12)c1cc2cccc(Cl)c2c(=O)n1-c1ccccc1 [Compound 137]
4,6.00 to 7.00,C[C@H](NC(=O)c1c(N)nn2cccnc12)c1cc2cccc(O)c2c(=O)n1-c1ccccc1 [Compound 132]
